In patent US12578339B2, “Hexokinase 1 isoform B for use as a prognosis marker and specific target against cancer” (ISTANBUL MEDIPOL UNIVERSITESI, priority 2019, dated 2026):
Entries after “also recorded” stand apart in the source; their conditions may differ.

Columns and labels:
Assay type in all cases: cell-based, Human
A549 HK1b−/− cells [1] = test: Cell viability assay (CellTiter-Blue); settings: 48 h treatment
Experimental: (§1) Twenty-four hours following seeding (15,000 cells/well) in a 96-well plate, A549 and A549 HK1b^−/− cells (70%-80% confluent) were treated with vehicle (PBS/Saline), or cisplatin with concentrations range from 0-100 μM/ml and the cells incubated for a further 48 h. The cell viability was determined using the CellTiter-Blue assay kit (Promega) according to the manufacturer's instructions and absorbance measured at 595 nm with a microplate reader (Model 3550, Bio-Rad Laboratories, CA, USA). IC50 was defined as the concentration causing a 50% reduction in absorbance relative to the negative control. IC50 was determined by non-linear regression analysis using Graphpad Prism v8 (Graphpad Software, CA, USA).

A549 WT cells [2] = test: Cell viability assay (CellTiter-Blue); settings: A549 WT control group, 48 h treatment
Experimental: as §1

A549 HK1b−/− cells [3] = test: Immunoblot analysis of apoptotic, autophagic and survival signaling
Experimental: (§2) Cells were harvested and washed in PBS solution, collected, and then subjected to lysis in RIPA buffer containing proteinase inhibitor cocktail and phosphatase inhibitor cocktail (Roche). The lysates were subjected to centrifugation at 10,000 g at 4 C for 20 minutes and the supernatants removed. The total protein ([…]) was fractioned by 10% SDS-PAGE and electrophoretically transferred to Immobilon-FL PVDF membranes. The membrane was blocked with blocking buffer (Li-Cor) at room temperature for 1 hour, and then incubated with appropriate primary antibody at 4 C overnight. After washing with PBS containing 0.05% […] (PBST), the membrane was incubated with 1:2500 dilutions of appropriate secondary antibody for 2 hours at room temperature. The membrane was washed with PBST again, and Pierce ECL Western Blotting Substrate (Thermo Scientific) was used for development of immunoreactive bands. For immunoblotting of tissue samples, proteins were extracted from tumor and adjacent non-tumor lung samples collected from human NSCLC patients, snap frozen in liquid nitrogen, and stored at −80° C. Then protein lysis buffer (described above) was added to samples. Samples were vortexed, homogenized and subjected to three freeze/thaw cycles in dry ice, centrifuged and supernatant collected, and stored at −80° C. for subsequent immunoblotting.

A549 WT cells [4] = test: as above
Experimental: as §2

A549 HK1b−/− cells [5] = test: Seahorse XF glycolysis stress test (ECAR); settings: treated A549 HK1b−/− cells
Experimental: (§3) For Seahorse XFe96 assays, cells were seeded at pre-optimized final concentration 1.5×10^4 cells/well onto Seahorse XF-96-well plates and Glycolytic rate, Glycolysis stress and Mito Stress Tests were performed following the manufacturer's specifications (Seahorse Bioscience, North Billerica, MA). Each datum was determined minimally in triplicate. OCR and ECAR were reported as absolute rates (pmoles/min for OCR and mpH/min for ECAR) or normalized against cell counts, or expressed as a percentage of the baseline oxygen consumption.

A549 HK1b−/− cells [6] = test: Seahorse Mito Stress Test (OCR); settings: between treated A549 WT and A549 HK1b−/− cells
Experimental: as §3

A549 WT cells [7] = test: Seahorse Mito Stress Test (OCR); settings: treated A549 WT cells, p=0.02
Experimental: as §3

A549 HK1b−/− cells [8] = test: Flow cytometric quantification of cell death by propidium iodide staining; settings: IC50 concentration (47 μM), 48 hrs
A549 HK1b−/− cells [9] = test: Flow cytometric analysis of mTOR activation; settings: flow cytometry, HK1b deletion plus treatment, p=0.001

Q: Which results are given for `N.N.[Cl][Pt][Cl]` [cisplatin, Cisplatin]?
A: IC50 (A549 HK1b−/− cells [1]): 47 µM; IC50 (A549 WT cells [2]): 75 µM; induction of cleavage of PARP and caspase 3 (A549 HK1b−/− cells [3]; A549 HK1b−/− cells compared with A549 WT): significantly higher; autophagy induction (LC3II) (A549 HK1b−/− cells [3]; HK1b deletion plus treatment): induces greater autophagy; phosphorylation of STAT3 transcription factor (A549 HK1b−/− cells [3]; HK1b deletion plus treatment): inhibit significantly; AKT activation and its downstream target GSK3β (A549 HK1b−/− cells [3]; HK1b silencing in combination with treatment): totally inhibited; beclin-1 and ATG13 expression levels (A549 HK1b−/− cells [3]; both A549 WT and A549 HK1b−/− cells): downregulated; phosphorylation of mTOR (A549 HK1b−/− cells [3]; immunoblot, HK1b deletion plus treatment): inhibits significantly; also recorded: inhibits phosphorylation; AMPK phosphorylation (A549 HK1b−/− cells [3]; treated A549 HK1b−/− cells): totally inhibited; Bcl-2 expression (A549 HK1b−/− cells [3]; treated A549 HK1b−/− cells): down-regulation of Bcl-2 expression was significant; HK2 expression (A549 HK1b−/− cells [3]; treated A549 HK1b−/− cells): reduced; cleavage of PARP and caspase 3 (A549 WT cells [4]; immunoblot, A549 WT (and HK1b−/−) cells): induces cleavage of PARP and caspase 3; AMPK phosphorylation (A549 WT cells [4]; treated A549 WT cells): diminished; HK1 expression (A549 WT cells [4]; treated A549 WT cells): significantly upregulated; basal glycolysis and glycolytic capacity (ECAR) (A549 HK1b−/− cells [5]): further reduction of basal glycolysis and glycolytic capacity even though not significant; also recorded: further reduced ablait not significant; glycolytic reserve (A549 HK1b−/− cells [5]): total absence; basal respiration rate (A549 HK1b−/− cells [6]): no significant change; spare respiratory capacity (A549 WT cells [7]): diminished; cell death measured by propidium iodide (PI) staining (A549 HK1b−/− cells [8]): significantly enhance cell death; mTOR phosphorylation (A549 HK1b−/− cells [9]): significantly inhibits
